Numbered stars: 1 amine (or outer) side, 2 acyl side, 3 side chain; on linkers, the order of the positions; unused ones are H or OH. Bridge positions count the residues as written; N and C are the ends. Square brackets hold non-standard residues; d marks the D form. Peptide text beside a SMILES is read from it. Phe(3R-OH) = O=C([C@@H](N[*:1])[C@H](O[*:3])c1ccccc1)[*:2]; Asn(3S-OH) = NC(=O)[C@@H](O)[C@H](N)C(=O)O; Leu(3R-OH) = CC(C)[C@@H](O)[C@H](N)C(=O)O; aThr = C[C@H](O)[C@H](N)C(=O)O
Key:
[1] = tested on: Staphylococcus aureus; test: dairy cow udder infection model with S. aureus; type: in vivo, lactating dairy cows
Protocol: Fifteen healthy lactating dairy cows were experimentally infected with the mastitis pathogen Staphylococcus aureus on all four udder quarters. […] Treatments were randomly assigned to 42 udder quarters in total, either 50 mg lysobactin per quarter (in 11 quarters), or 150 mg Lysobactin (in 11 quarters), or Ubrolexin® (in 9 quarters), or saline solution (in 11 quarters). Only udder quarters that were bacteriologically positive for the challenge organism immediately prior to treatment (n=42) were eligible for assessment of microbiological and clinical cure. The diseased quarters were treated with these intramammary formulations two times with an interval of 24 hours in between. Udders were clinically examined and milk samples were taken before treatment and several times after that until three weeks after the second administration. Milk was inspected visually for deviation in its consistency and samples were evaluated for presence of the challenge organism and for somatic cell count to confirm the diagnosis mastitis. Diseased udder quarters were considered microbiologically cured when Staphylococcus aureus found in milk samples shortly before treatment could not be isolated from any milk sample taken within the time period between the third and the twenty-first day after the second treatment. Clinical cure was achieved when the local symptoms of mastitis had completely disappeared, and recovery of somatic cell counts (SCC) as parameter of udder inflammation was attained when all counts remained below 500.000 cells per mL of milk in the period mentioned above.

[2] = in vivo; set-up: species or system Holstein cows; conditions: female, Holstein, bovine, 150 mg
Protocol: The study was designed as a non-pivotal study suitable to investigate the milk pharmacokinetics of the active substance lysobactin after single intracisternal application to lactating dairy cows. The active substance was provided in a paraffine based service formulation suitable for intracisternal application containing 150 mg lysobactin B in 10 g oily suspension. The test item was administered as single intracisternal treatment at a dose rate of 150 mg lysobactin to a single hind quarter of four lactating dairy cows each. The dairy cows on study (Holstein cows) represented the target population in age, lactation number, lactation stage, milk yield and breed. The animals were stalled in a tie-barn and were fed with standard feed for dairy cows consisting of corn and grass silage and milk performance feed. Milking was twice daily at a 12 hour interval using a bucket-type milking device. Frequent milk sampling was performed from the treated and respective control quarters prior to (0 h) and over a period of 168 h after treatment (0.5, 1, 2, 4, 6, 8, 12, 24, 36, 48, 60, 72, 84, 96, 120, 144, and 168 h) by manual stripping of the respective udder quarters. Milk samples at routine milking times were gathered prior to milking. Concentrations of the active substance lysobactin in milk were analyzed by HPLC with detection by tandem mass spectrometry. The limit of quantitation was 0.05 mg/L. Pharmacokinetic evaluation of milk concentration data was based on non-compartmental methods and comprised PK-parameters to adequately describe the absorption, distribution and elimination profile of the active substance in milk.

[3] = tested on: Streptococcus uberis ATCC 27958; test: in vitro kill kinetics in milk; type: cell-based; conditions: at 48 h; full-fat milk; 4, 8, 16, 32 and 64 μg/mL
Protocol: (§1) In order to assess the ability of lysobactin to kill bacteria in milk, flasks containing different concentrations of lysobactin in store-bought full-fat milk were inoculated with 1-2×10^6 colony forming units/ml of a representative strain of either Staphylococcus aureus or Streptococcus uberis. The flasks were incubated for 24-48 hours in a shaking water bath at 35+/−2° C., and viable bacterial counts in each flask were determined at several time-points by diluting and plating samples on agar plates. A reduction of the number of viable bacteria in the initial inoculum by at least 99.9% is defined as bactericidal activity.
(§2) The kill kinetics of lysobactin against Staphylococcus aureus ATCC 29740 and Streptococcus uberis ATCC 27958 in milk were determined for concentrations of lysobactin of 4, 8, 16, 32 and 64 μg/mL. Results are depicted in FIG. 1 (CFU: colony forming units). A cidality at 24 h and 48 h, respectively, can be postulated for S. aureus and S. uberis.

[4] = tested on: Staphylococcus aureus ATCC 29740; test: in vitro kill kinetics in milk; type: cell-based; conditions: at 24 h; full-fat milk; 4, 8, 16, 32 and 64 μg/mL
Protocol: as §1, §2

[5] = tested on: S. aureus; test: resistance development during serial passaging; type: cell-based, Staphylococcus aureus; conditions: constant sub-MIC exposure, 33 days
Protocol: The appearance of MIC changes during constant exposure of bacteria to sub-MIC concentrations of lysobactin was assessed by serial passaging experiments. On the first day the MICs of S. aureus and S. uberis were assessed by microbroth dilution MIC methodology as described by the Clinical and Laboratory Standards Institute (CLSI). Each day for the following 33 consecutive days, bacteria from the well containing the highest concentrations allowing full growth were collected and used to inoculate new 96-well plates and to assess the MIC during constant exposure to lysobactin. The MIC obtained on each day was plotted over time. Rifampicin, which is known to result in quick changes of the MIC, was used as positive control.

[6] = tested on: Streptococcus uberis ATCC 27958; test: spontaneous resistance development; type: cell-based; conditions: for obtained colonies: plated CFU 2.4 × 10^10
Protocol: (§3) The frequency of spontaneous resistance development was assessed by plating at least 1×10^9 colony forming units of the respective bacterial strain on agar plates containing lysobactin at either 4× or 8× the MIC and incubating the plates at 35+/−2° C. […] The resulting number is defined as the spontaneous resistance frequency, and is an indication for the likelihood of resistant isolates to appear during an infection.

[7] = tested on: Staphylococcus aureus ATCC 29740; test: spontaneous resistance development; type: cell-based; conditions: for obtained colonies: plated CFU 3.52 × 10^9
Protocol: as §3

[8] = 50 mg per quarter, Day 3 after second treatment
[9] = 50 mg per quarter, Day 21 after second treatment
[10] = 150 mg per quarter, Day 3 after second treatment
[11] = 150 mg per quarter, Day 21 after second treatment

Question: Which results are given for `CC[C@H](C)[C@@H]1NC(=O)[C@@H](CCCNC(=N)N)NC(=O)[C@H](CC(C)C)NC(=O)[C@H]([C@H](O)C(C)C)NC(=O)[C@@H](NC(=O)[C@H](CC(C)C)NC(=O)[C@H](N)CC(C)C)[C@@H](c2ccccc2)OC(=O)[C@H](CO)NC(=O)[C@H]([C@H](O)C(N)=O)NC(=O)CNC(=O)[C@H]([C@H](C)O)NC1=O` [lysobactin] (H-[dL]L[Phe(3R-OH)][Leu(3R-OH)]L[dR]I[aThr]G[Asn(3S-OH)]S; ester 3-C)?
Answer: microbiological cure rate ([1]; 50 mg per quarter, 2 treatments 24 h apart, Day 3 after second treatment): 73%; SCC recovery rate [1, 8]: 36%; local clinical cure rate [1, 8]: 45%; SCC recovery rate [1, 9]: 45%; local clinical cure rate [1, 9]: 73%; microbiological cure rate [1, 9]: 27%; SCC recovery rate [1, 10]: 36%; local clinical cure rate [1, 10]: 37%; microbiological cure rate [1, 10]: 73%; SCC recovery rate [1, 11]: 91%; local clinical cure rate [1, 11]: 82%; microbiological cure rate [1, 11]: 45%; AUC(0-inf) [2]: 2320 µg·h/mL; Cmax [2]: 342 µg/mL; Tmax [2]: 4 h; half-life [2]: 11.6 h; AUC(0-t) ([2]; AUC0-12 h): 1870 µg·h/mL; AUC(0-t) ([2]; AUC0-24 h): 2210 µg·h/mL; kill kinetics, bactericidal activity (cidality) [3]: cidality; kill kinetics, bactericidal activity (cidality) [4]: cidality; MIC change during serial passaging [5]: remain constant; frequency of resistance ([6]; 24 h, 2 μg/ml (4x MIC)): <4.17 × 10^−11; obtained colonies ([6]; 24 h, 2 μg/ml (4x MIC)): 0; frequency of resistance ([6]; 24 h, 4 μg/ml (8x MIC)): <4.17 × 10^−11; obtained colonies ([6]; 24 h, 4 μg/ml (8x MIC)): 0; frequency of resistance ([6]; 48 h, 2 μg/ml (4x MIC)): <4.17 × 10^−11; obtained colonies ([6]; 48 h, 2 μg/ml (4x MIC)): 0; frequency of resistance ([6]; 48 h, 4 μg/ml (8x MIC)): <4.17 × 10^−11; obtained colonies ([6]; 48 h, 4 μg/ml (8x MIC)): 0; frequency of resistance ([7]; 24 h, 2 μg/ml (4x MIC)): <2.84 × 10^−10; obtained colonies ([7]; 24 h, 2 μg/ml (4x MIC)): 0; frequency of resistance ([7]; 24 h, 4 μg/ml (8x MIC)): <2.84 × 10^−10; obtained colonies ([7]; 24 h, 4 μg/ml (8x MIC)): 0; frequency of resistance ([7]; 48 h, 2 μg/ml (4x MIC)): <2.84 × 10^−10; obtained colonies ([7]; 48 h, 2 μg/ml (4x MIC)): 0; frequency of resistance ([7]; 48 h, 4 μg/ml (8x MIC)): <2.84 × 10^−10; obtained colonies ([7]; 48 h, 4 μg/ml (8x MIC)): 0
